How the values were obtained:
human PMN = assay: TNFα-stimulated superoxide anion generation by human PMN (cytochrome C reduction); assay type: cell-based; settings: for inhibition of TNFα-stimulated superoxide anion generation: 10 nM compound, 5 min, then TNFα 50 ng/ml
Method: Human PMN were incubated with either vehicle alone or indicated concentrations of LXA4, 15 R/S-methyl-LXA4 or 16-phenoxy-LXA4 for 5 min and then with TNFα (50 ng/ml) for an additional 10 min. Values are the mean±SEM for LXA4 (n=3), 15 R/S-methyl-LXA4 (n=4) or 16-phenoxy-LXA4 (n=3).
Venous blood from healthy donors was collected using sterile conditions using acid citrate dextrose (ACD) as an anticoagulant, and PMN were isolated as in (15). PMN were suspended in cold (4° C.) Hank's medium (supplemented with 1.6 mM Ca^++, 0.1% FCS, 2 mM L-glutamine, 1% penicillin, and 2% streptomycin, pH 7.4). […] To examine superoxide production, PMN (1.0×10^6/ml) were placed at 37° C. (3 min) and then exposed to either vehicle (0.1% ethanol) or synthetic LXA4, 15R/S-methyl LXA4 or 16-phenoxy-LXA4 for 5 min at 37° C. Before adding TNFα (50 ng/ml), PMN were incubated with cytochrome C (0.7 mg/ml) for 10 min at 37° C. […] reduction of cytochrome C was terminated by rapidly placing tubes in an ice-water bath. The extent of cytochrome C reduction in each supernatant was determined at 550 nm in reference to control values obtained when superoxide dismutase was added before a stimulus or vehicle control. Cytochrome C reduction was quantitated using the extinction coefficient of 21.1/mmol/L.
TNFα, although a modest agonist of O2^−generation by human PMN, is a physiologically relevant stimulus for the generation of reactive oxygen species (ROS) by human PMN that can play critical roles in local tissue injury during both inflammation and reperfusion (Tsujii, M., S. Kawano, S. Tsuji, H. Sawaoka, M. Hori, and R. N. DuBois. 1998. Cyclooxygenase regulates angiogenesis induced by colon cancer cells. Cell 93:705-716; Shibuya, H., N. Ohkohchi, S. Tsukamoto, and S. Satomi. 1997. Tumor necrosis factor-induced, superoxide-mediated neutrophil accumulation in cold ischemic/reperfused rat liver. Hepatology 26:113-120; Jaeschke, H., A. Farhood, and C. W. Smith. 1990. Neutrophils contribute to ischemia/reperfusion injury in rat liver in vivo. FASEB J. 4:3355-3359). In FIG. 1, the impact of LXA4 and ATL related bioactive stable analogs were evaluated on TNFα stimulated superoxide anion production. […] 15R/S-methyl-LXA4 covers both LXA4 and ATL in structure, and 16-phenoxy-LXA4 is a LXA4 analog (see FIG. 1).

PMN = assay: PMA- or FMLP-stimulated O2- production by PMN; assay type: cell-based, human
IL-1β [1] = assay: TNFα-induced IL-1β release by human PMN; assay type: cell-based; settings: for inhibition of IL-1β release: 100 nM compound, human PMN
Excerpt: Supernatants were collected, and IL-1β was quantitated by ELISA. Results are expressed as mean±SD of duplicates, and are from one experiment representative of n=3. […] Values represent the mean ±SEM, n=3. At all time intervals tested, TNFα induced a significant appearance of IL-1β over vehicle-treated cells (*p<0.01).
(§1) Human and mouse recombinant TNFα and human recombinant GM-CSF were obtained from Boehringer Mannheim (Indianapolis, Ind.). Dulbecco's PBS (Mg^++ and Ca^++-free), RPMI-1640 and FCS were purchased from Bio Whittaker Inc. (Walkersville, Md.). Ficoll-Hypaque was from Organon Teknika Corp. (Durham, N.C.) and Hank's balanced salt solution was purchased from Gibco BRL (Grand Island, N.Y.). Serum bovine albumin, dextran, antibiotics, L-glutamine, cytochrome C, superoxide dismutase and zymosan were obtained from Sigma (St. Louis, Mo.). The assessment of human IL-1β in supernatants was performed by using an immunometric assay with acetylcholine esterase (Cayman Chemical, Ann Arbor, Mich.). Murine IL-1β was assessed using an ELISA from Endogen (Woburn, Mass.). ELISAs for IL-4 and IL-10 were from Amersham (Arlington Heights, Ill.); MIP-2 and IL-13 ELISAs were from R&D Systems (Minneapolis, Minn.). LXA4 and ATL metabolically stable analogs were prepared and characterized, including nuclear magnetic resonance spectroscopy, as in (14). Concentrations of each LX analog were determined using an extinction coefficient of 50,000 M^−1.cm^−1.just prior to each experiment. Where indicated, statistical analyses were performed using Student's non-paired t-test (two-tailed), and significance (*) was considered to be attained when P was <0.05.

IL-1β [2] = assay: IL-1β levels in supernatants of PMN incubated with TNFα, GM-CSF or zymosan; assay type: cell-based, human
Excerpt: as §1, with “<0.05. […]” for “<0.05.”

MIP-2 = MIP-2 in murine air pouch exudates (ELISA); assay type: in vivo, BALB/c mice
Method: (§2) Experiments were conducted as described in FIG. 5 legend. Quantitation for IL-1β, IL-4, IL-10, IL-13 and MIP-2 was performed using ELISA with air pouch cell-free exudates. […] Changes in IL-1β, MIP-2 and IL-4 were significant at all tested time intervals (p<0.01).
as §1
(§3) Exudates from selected time intervals were collected and cell-free supernatants assessed for the presence of these murine cytokines. TNFα induced maximal detectable amounts of MIP-2 and IL-1β within 90 minutes (not shown). 15 R/S-methyl-LXA4 (25 mnoles) inhibited TNFα-stimulated MIP-2 and IL-1β release by 48% and 30% respectively (FIG. 6). […] This stimulation of IL-4 was observed both in the absence as well as presence of TNFα. Neither IL-10 nor IL-13 was detected within the pouch exudates.

IL-1β [3] = assay: IL-1β in murine air pouch exudates (ELISA); assay type: in vivo, BALB/c mice
Method: as §2, §1, §3

leukocyte infiltration = assay: TNFα-induced leukocyte infiltration in murine air pouches
Method: One ml of sterile PBS containing either 0.1% ethanol, TNFα, 15 R/S-methyl-LXA4, or TNFα plus 15 R/S-methyl-LXA4 was injected into the pouches, and the exudates were collected at indicated time periods. The total number of leukocytes was counted as in Materials & Methods. The results are expressed as mean±SEM from three different mice for each point.
Six to eight week old male BALB/c mice were obtained from Taconic Farms (Germantown, N.Y.). Air pouches were raised on the dorsum by s.c. injection of 3 ml of sterile air on day 0 and day 3. All experiments were conducted on day 6 (16). Individual air pouches (one per mouse) were injected with either vehicle alone (0.1% ethanol), TNFα, 15 R/S-methyl-LXA4 or TNFα plus 15 R/S-methyl-LXA4, and each was suspended in 1 ml endotoxin-free PBS immediately before injection into pouch cavities. At given intervals, the mice were sacrificed and individual air pouches were lavaged three times with sterile PBS (1 ml). The exudates were centrifuged at 2000 RPM (5 min) and the supernatants were removed. Cell pellets were suspended in PBS (200 μl) for enumeration and assessed for viability. Fifty μl of each cell suspension was mixed with 150 μl 30% BSA and then centrifuged onto microscope slides at 500 RPM for 5 min using a cytospin centrifuge, air dried, and stained with Giemsa-Wright.
Also, inflammatory exudates were collected 4 h after injection with vehicle alone, TNFα, 15 R/S-methyl-LXA4 alone, or TNFα plus 15 R/S-methyl-LXA4, and cell types were enumerated.

IL-4 = IL-4 in murine air pouch exudates (ELISA); assay type: in vivo, BALB/c mice; settings: both in the absence as well as presence of TNFα
Method: as §2
as §1, with “ELISAs for IL-4 and IL-10 were from Amersham (Arlington Heights, Ill.); MIP-2 and IL-13 ELISAs were from R&D Systems (Minneapolis, Minn.). LXA4 and ATL metabolically stable analogs were prepared and characterized, including nuclear magnetic resonance spectroscopy, as in (14).” left out, “Where indicated, statistical analyses were performed using Student's non-paired t-test (two-tailed), and significance (*) was considered to be attained when P was <0.05.” left out
Exudates from selected time intervals were collected and cell-free supernatants assessed for the presence of these murine cytokines. […] Neither IL-10 nor IL-13 was detected within the pouch exudates.

IL-1β messenger RNA = assay: TNFα-triggered IL-1β gene expression in PMN (Northern blot); settings: 100 nM compound plus TNFα 10 ng/ml; 6 h
Method: PMN were incubated with either 0.1% ethanol (vehicle) or 15 R/S-methyl-LXA4 at 10, 100, and 1000 nM, in the presence or absence of TNFα (10 ng/ml), for 6 h at 37° C. Northern blots were performed in order to detect IL-1β messenger RNA.
PMN were exposed to increasing concentrations of 15 R/S-methyl-LXA4, 16-phenoxy-LXA4 or native LXA4 in the presence of TNFα (10 ng/ml) or vehicle alone.

LXA4 receptor = LXA4 receptor (Homo sapiens, UniProt P25090); assay: Involvement of LXA4 receptor in TNFα-stimulated IL-1β release (anti-LXA4-R antibodies)
Method: PMN were incubated with either IgG purified from pre-immune serum (50 μg/ml) or anti-LXA4 receptor (50 μg/ml) for 1 h at 4° C., then exposed to agonists for 12 h at 37° C. and 5% CO2. Values are expressed as mean±SD from an experiment performed in triplicate, which is representative of three distinct experiments each performed with different donors (*p<0.01).
PMN were incubated with ˜50 μg/ml of either preimmune protein-A purified IgG or IgG directed against LXA4-R for 1 h at 4° C. prior to exposure to TNFα (10 ng/ml) and 15 R/S-methyl-LXA4 (100 nM).

[4] = injected alone, 4 h post-injection, TNFα 10 ng or compound 25 nmoles
[5] = 25 mnoles, air pouch exudates (FIG. 6)
[6] = compound 25 nmoles plus TNFα 10 ng, 4 h post-injection

Chain of LXA4 receptor (P25090 whole entry): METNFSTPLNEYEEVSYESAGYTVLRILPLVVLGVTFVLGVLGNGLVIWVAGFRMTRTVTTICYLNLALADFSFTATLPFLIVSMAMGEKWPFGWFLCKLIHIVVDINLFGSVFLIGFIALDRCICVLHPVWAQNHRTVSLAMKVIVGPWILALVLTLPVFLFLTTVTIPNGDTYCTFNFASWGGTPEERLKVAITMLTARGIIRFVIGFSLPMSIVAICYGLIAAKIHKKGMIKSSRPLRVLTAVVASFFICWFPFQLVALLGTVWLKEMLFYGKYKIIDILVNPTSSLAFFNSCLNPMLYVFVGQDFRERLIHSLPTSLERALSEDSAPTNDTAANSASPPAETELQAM

CCCCC[C@H](O)/C=C/C=C\C=C\C=C\[C@@H](O)[C@@H](O)CCCC(=O)O (relative stereo) [LXA4, 5S, 6R, 15S-trihydroxy-7,9,13-trans-11-cis-eicosatetraenoic acid, reference compound]
inhibition of TNFα-stimulated superoxide anion generation (human PMN): 34.3±2.3% | inhibition of FMLP-stimulated O2- production (PMN): neither LXA4 nor its analogs inhibit | inhibition of PMA-stimulated O2- production (PMN; PMA 100 nM, n=3): neither LXA4 nor its analogs inhibit | inhibition of IL-1β release (IL-1β [1]; TNFα 10 ng/ml): comparable | effect on TNFα-induced IL-1β release (IL-1β [1]; LXA4 100 nM, TNFα 10 ng/ml, 20 h (FIG. 2A)): specifically inhibited

COC(=O)CCCC(O)C(O)C=CC=CC=CC=CC(O)COc1ccccc1 (stereo not drawn) [16-phenoxy-LXA4, 16 phenoxy-lipoxin A4 methyl ester]
potency relative to native LXA4 as inhibitor of TNFα-stimulated superoxide generation (human PMN): approximately three times more potent | inhibition of TNFα-stimulated superoxide anion generation (human PMN): 93.7±3.2% | inhibition of IL-1β release (IL-1β [1]; TNFα 10 ng/ml): approximately 40%

TNFα [reference compound]
approximate EC50 for increase in IL-1β levels in supernatants (IL-1β [2]; agonist TNFα): ~10 ng/mL | time to maximal detectable amounts of MIP-2 (MIP-2; TNFα-injected pouches): ≤ 90 min | time to maximal detectable amounts of IL-1β (IL-1β [3]; TNFα-injected pouches): ≤ 90 min | Number of leukocytes present in the pouch: Eosinophils/Basophils (leukocyte infiltration; [4]): 0.30 ± 0.01 x 10^6 | Number of leukocytes present in the pouch: Monocytes/Macrophages (leukocyte infiltration; [4]): 0.20 ± 0.01 x 10^6 | Number of leukocytes present in the pouch: Neutrophils (leukocyte infiltration; [4]): 2.40 ± 0.10 x 10^6 | time of maximal accumulation of leukocytes in the air pouch (leukocyte infiltration; murine TNFα 10 ng/ml): 4 h

CCCCCC(C)(O)/C=C/C=C\C=C\C=C\[C@@H](O)[C@@H](O)CCCC(=O)OC (stereo partly drawn) [15 R/S-methyl-LXA4, 15R/S-methyl-LXA4-methyl ester]
potency relative to native LXA4 as inhibitor of TNFα-stimulated superoxide generation (human PMN): approximately three times more potent | inhibition of TNFα-stimulated superoxide anion generation (human PMN): 81.3±14.1% | inhibition of TNFα-induced IL-1β release (IL-1β [1]; 10 nM compound, TNFα 10 ng/ml (FIG. 2B)): clear statistically significant inhibition | time within which inhibition of IL-1β release was evident (IL-1β [1]; 10 nM compound, more prominent after 24 h): ≤ 6 h | inhibition of IL-1β release (IL-1β [1]; TNFα 10 ng/ml): approximately 60% | inhibition of TNFα-stimulated MIP-2 release (MIP-2; [5]): 48% | MIP-2 release, compound alone in the air pouch (MIP-2; without TNFα): did not stimulate | inhibition of TNFα-stimulated IL-1β release (IL-1β [3]; [5]): 30% | IL-1β release, compound alone in the air pouch (IL-1β [3]; without TNFα): did not stimulate | appearance of IL-4 within the exudates (IL-4): stimulated the appearance of IL-4 | time at which inhibition of leukocyte recruitment was evident (leukocyte infiltration; 25 nmoles): 1 h | inhibition of TNFα-stimulated recruitment of leukocytes to the air pouch (leukocyte infiltration; 25 nmoles into pouch, murine TNFα 10 ng/ml (FIG. 5)): 62% | leukocyte infiltration at 8 h (leukocyte infiltration; 8 h, 25 nmoles (FIG. 5, insert)): remained significantly reduced | reduction in leukocyte infiltration (leukocyte infiltration; between 2 h and 4 h, 25 nmoles): more than 60% | Number of leukocytes present in the pouch: Eosinophils/Basophils (leukocyte infiltration; [6]): 0.13 ± 0.01 x 10^6 | Number of leukocytes present in the pouch: Monocytes/Macrophages (leukocyte infiltration; [6]): 0.10 ± 0.01 x 10^6 | Number of leukocytes present in the pouch: Neutrophils (leukocyte infiltration; [6]): 0.98 ± 0.10 x 10^6 | Percent inhibition of TNFα-induced infiltration: Eosinophils/Basophils (leukocyte infiltration; [6]): (56.0%) | Percent inhibition of TNFα-induced infiltration: Monocytes/Macrophages (leukocyte infiltration; [6]): (50%) | Percent inhibition of TNFα-induced infiltration: Neutrophils (leukocyte infiltration; [6]): (59.1%) | Number of leukocytes present in the pouch: Eosinophils/Basophils (leukocyte infiltration; [4]): 0.03 ± 0.01 x 10^6 | Number of leukocytes present in the pouch: Monocytes/Macrophages (leukocyte infiltration; [4]): 0.14 ± 0.01 x 10^6 | Number of leukocytes present in the pouch: Neutrophils (leukocyte infiltration; [4]): 0.25 ± 0.01 x 10^6 | leukocyte infiltration after injection of the analog alone (leukocyte infiltration; without TNFα): did not cause a significant leukocyte infiltration | mononuclear cell influx, compound alone (leukocyte infiltration; without TNFα, 4 h): small but statistically significant increase | decrease of IL-1β messenger RNA levels compared to TNFα alone (IL-1β messenger RNA): approximately 60% | inhibition of IL-1β release (LXA4 receptor; 100 nM compound, TNFα 10 ng/ml, 12 h (FIG. 4)): about 50% | IL-1β appearance when added together with anti-LXA4-R antibodies in the presence of TNFα (LXA4 receptor; 100 nM compound, antibodies ~50 μg/ml): did not further inhibit IL-1β appearance | stimulation of IL-1β appearance within supernatants, agent alone (LXA4 receptor; without TNFα): neither anti-LXA4-R antibodies nor 15 R/S-LXA4 alone stimulated significant amounts of IL-1β

GM-CSF: human recombinant GM-CSF, agonist of IL-1β release
approximate EC50 for increase in IL-1β levels in supernatants (IL-1β [2]; agonist GM-CSF): ~10 U/ml
